Data from patent publication US20020086835A1, “Use of adenosine deaminase inhibitors to treat systemic inflammatory response syndrome” (priority 2000, published 2002).
“And” between values parts separate entries of the source, which are not always exact repeats. Equal values may be shown once.

Legend:
[1] = biological target: T1, adenosine deaminase (Homo sapiens, UniProt P00813); settings: FIG. 10 legend; cited from earlier work
T1 sequence (P00813 1-363): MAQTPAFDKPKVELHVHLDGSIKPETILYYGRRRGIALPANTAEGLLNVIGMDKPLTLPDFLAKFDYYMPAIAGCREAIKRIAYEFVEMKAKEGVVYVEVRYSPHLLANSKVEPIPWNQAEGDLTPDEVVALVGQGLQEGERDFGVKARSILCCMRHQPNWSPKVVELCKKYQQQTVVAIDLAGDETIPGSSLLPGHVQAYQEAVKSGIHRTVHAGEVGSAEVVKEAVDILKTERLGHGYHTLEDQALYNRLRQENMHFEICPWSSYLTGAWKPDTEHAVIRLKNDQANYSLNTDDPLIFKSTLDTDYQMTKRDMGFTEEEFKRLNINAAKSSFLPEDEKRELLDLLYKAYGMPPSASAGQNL

[2] = test system: adenosine receptors; assay: Regional vascular resistance by radiolabelled microspheres 24 hours after sepsis induction; type: in vivo, rat; settings: septic rats
Experimental: Systemic vascular responses were examined 24 hours after induction of sepsis in the presence or absence of adenosine receptor blockade in septic and non-septic rats using radiolabelled microspheres. For these experiments, the surgical procedure involving vascular access was modified to include a catheter in the left ventricle of the heart (via the carotid artery), and a catheter in the tail artery (Intramedic PE-50, Baxter) to permit reference blood withdrawal and blood pressure monitoring. Regional blood flows were determined using radiolabelled microspheres. The microspheres ([…] New England Nuclear, Boston), labeled with one of four isotopes (^46Sc, ^85Sr, ^95Nb, ^141Ce), were mixed in 0.9% normal saline with 0.01 % Tween-80 added to prevent aggregation. The microspheres were adjusted to provide a minimum of 400 microspheres per tissue sample, and represented approximately 100,000-250,000 spheres per injection. The specific Isotopes and their order of injection were randomized in each experiment. with each injection representing a volume of 0.4 ml/injectate. The microspheres were sonicated for a minimum of 30 minutes, and vortexed vigorously for at least 30 seconds prior to injection. A reference withdrawal sample was taken at 0.33 ml/min from the tail artery catheter using a mechanical pump (Harvard Model 22). The reference withdrawal was started 10 seconds prior to injecting the isotopes, and continued for 150 seconds. […] Wet weights were obtained and all tissues were counted in a gamma spectrophotometer (Beckman 9000). Gamma activity in the injectate vials was counted prior to the experiments. Actual injected amounts for each isotope were calculated by subtracting any isotope counts remaining in the vials, syringes, and catheters used for injection. Cardiac output (CO) was determined by dividing the total injectate counts for any given isotope by the counts in the reference sample and multiplying by the fixed withdrawal rate of the reference sample. The results for cardiac output are expressed as ml/min. Tissue counts attributed to each isotope were determined after subtracting the overlap of energy spectra from higher energy isotopes (Compton back-scatter). Individual tissue blood flows were determined by dividing the counts obtained in the tissue by the reference withdrawal counts and multiplying by the reference withdrawal rate. Tissue blood flows were then normalized to wet weight was calculated by adding the individual tissue blood flows of the stomach, small intestine, cecum, colon, pancreas, hepatic artery and spleen, and dividing by the liver weight. Regional tissue vascular resistances were calculated from regional blood flows and arterial blood pressure, according to the equation: […]

[3] = test system: TNF-α; assay: Serum TNF-α by ELISA in rats with chronic peritoneal sepsis (200 mg/kg cecal slurry ip); type: in vivo, rat; settings: septic rats
Experimental: (§1) Studies were conducted to determine if manipulation of adenosine-mediated events would result in alterations in the TNF-α response in this model. At the time of sepsis induction, rats were treated in one of four ways. One group received only 0.9% normal saline as a vehicle control (No Rx; n=6). […] The third group received the adenosine deaminase inhibitor, erythro-9-(2-hydroxy-3-nonyl)adenine (EHNA; 1 μmole/kg+1 μmole/kg/hr; iv; n=3). A fourth group received the adenosine receptor antagonist 8-sulfophenyltheophylline (SPT; 400 μg/kg/8 hours; n=5).
(§2) Sepsis was induced under pentobarbital anesthesia (50 mg/kg) in each rat by intraperitoneal (ip) injection of 200 mg/kg rat cecal contents mixed as a slurry in 5% dextrose in water (D5W). […] Non-septic controls received an equivalent volume ip injection of D5W. Polyethylene catheters (Intramedic PE-50, Baxter) were inserted into the right internal jugular vein and right carotid artery. The jugular catheter was used for venous access (drug infusions; volume replacement, etc). The carotid catheter was used to obtain arterial blood samples, and to monitor arterial blood pressure and heart rate. The catheters were secured in their respective vessels, tunneled subcutaneously to exit in the interscapular region, and filled with heparinized saline (50 units/ml 0.9% normal saline). Incisions were closed in layers using 3-0 silk. Rats were allowed to recover from anesthetic and provided food and water ad libitum,
Serum and tissue tumor necrosis factor-α (TNF-α) concentrations were determined by enzyme-linked immunosorbant assay. Samples of serum, liver, and spleen were collected, rapidly weighed, and frozen in liquid nitrogen. On the day of assay, tissues are added to labeled tubes containing lysis buffer (volume=10 ml/gram wt. with 1:10 dilution) and kept on ice. The lysis buffer is 20 mM Tris (pH 7.4) containing […] phenylmethylsulfonylflouride (PMSF), […] leupeptin, 0.7 g/ml pepstatin, and 2.0 g/ml aprotinin to inhibit proteases. Samples were immediately homogenized using five 3 see bursts, washing grinding pistol (3×) between samples with phosphate buffered saline. Samples are then centrifuged for 20 min at 2200 RPM, 4° C. The supernatant was removed and used for TNF-α measurements. Briefly, each microplate well contained 50 μl of assay diluent. To each well, 50 μl of standard, control, or serum/homogenate supernatant sample were added and mixed on an orbital plate shaker. Plates were incubated at room temperature for 2 hours. Each well was then aspirated and washed with wash buffer 4 times. After final aspiration of wash buffer, 100 μl of rat TNF-α conjugate was added to each well. Wells were then covered and incubated for 2 hours at room temperature. At the end of the incubation, the aspiration/wash procedure was repeated 4 times, after which 100 μl of stabilized chromogen solution was added to each well. Next, plates were incubated for 45 minutes at room temperature in a dark area. After this final incubation period, 100 μl stopping solution was added to each well. Optical density of each well at […] was determined within 30 minutes using a Biotek Instruments EL312e microtiter plate reader. Concentrations of TNF-α were calculated from the standard curves.
At the time of sepsis induction, rats were treated in one of three ways. One group received only 0.9% normal saline as a vehicle control (VEH, n=6, where n is the number of rats). […] A third group received the adenosine receptor antagonist, 8-sulfophenyltheo-phylline (SPT; 400 μg/kg/8 h; n=5). Serum TNF-α (pg/ml) was determined at 4 and 24 hours after sepsis induction by ELISA.
Male SD rats (350-400 g) were made septic by IP introduction of a 200 mg/kg cecal slurry. […] TNF-α (pg/ml) was determined at 4 and 24 hours after sepsis induction by ELISA.

[4] = test system: septic rats; assay: Survival of septic rats to day 3; type: in vivo, rat; settings: pentostatin 5 mg/kg/12 h; 8-SPT 400 μg/kg/8 h; 3 days post-sepsis
Experimental: as §1
as §2, with “The catheters were secured in their respective vessels, tunneled subcutaneously to exit in the interscapular region, and filled with heparinized saline (50 units/ml 0.9% normal saline). Incisions were closed in layers using 3-0 silk. Rats were allowed to recover from anesthetic and provided food and water ad libitum,” left out
(§3) At the time of sepsis induction, rats were treated in one of three ways. […] Serum TNF-α (pg/ml) was determined at 4 and 24 hours after sepsis induction by ELISA.

[5] = test system: septic rats; assay: Blood pressure and heart rate in septic rats; settings: chronic treatment
Experimental: as §1
as §2, with “The catheters were secured in their respective vessels, tunneled subcutaneously to exit in the interscapular region, and filled with heparinized saline (50 units/ml 0.9% normal saline). Incisions were closed in layers using 3-0 silk. Rats were allowed to recover from anesthetic and provided food and water ad libitum,” left out
as §3

[6] = test system: TNF-α; assay: Serum TNF-α in fluid-resuscitated sepsis-induced SIRS; type: in vivo, rat; settings: 24 hours after SIRS induction, 1 mg/kg pentostatin 2 hours after induction
Experimental: (§4) SIRS was induced secondary to sepsis by ip introduction of […] cecal matter in 5 ml/kg D5W.
(§5) It is increasingly apparent that feedback between pro and anti-inflammatory processes is critically important to the clinical outcome from SIRS, as taught by Bone (Bone, 1996). The balance between complementary pro-and anti-inflammatory molecules is typified by TNF α and its soluble receptors, sTNF types I and II. The ability of ADA inhibition to restore balance to these complimentary molecules in the SIRS responses was tested with a more clinically relevant addition of fluid resuscitated sepsis. […] Further evidence of a complex, modulatory mode of action is indicated by IL-10 concentrations in the liver and spleen.
Serum and tissue tumor necrosis factor-α (TNF-α) concentrations were determined by enzyme-linked immunosorbant assay. Samples of serum, liver, and spleen were collected, rapidly weighed, and frozen in liquid nitrogen. On the day of assay, tissues are added to labeled tubes containing lysis buffer (volume=10 ml/gram wt. with 1:10 dilution) and kept on ice. […] Optical density of each well at […] was determined within 30 minutes using a Biotek Instruments EL312e microtiter plate reader. Concentrations of TNF-α were calculated from the standard curves.

[7] = test system: IL-6; assay: Serum IL-6 in fluid-resuscitated sepsis-induced SIRS; type: in vivo, rat; settings: 24 hours after SIRS induction, 1 mg/kg pentostatin 2 hours after induction
Experimental: as §4, §5

[8] = test system: sTNFRI or p55; assay: Circulating soluble TNF receptor I in fluid-resuscitated sepsis-induced SIRS; type: in vivo, rat; settings: 24 hours after SIRS induction; 1 mg/kg pentostatin 2 hours after induction
Experimental: as §4, §5

[9] = test system: sTNFRII or p75; assay: Circulating soluble TNF receptor II in fluid-resuscitated sepsis-induced SIRS; type: in vivo, rat; settings: 24 hours after SIRS induction; 1 mg/kg pentostatin 2 hours after induction
Experimental: as §4, §5

[10] = test system: IL-10; assay: IL-10 in serum, liver and spleen in fluid-resuscitated SIRS; type: in vivo, rat; settings: pentostatin treatment
Experimental: as §4, §5

[11] = test system: SIRS rats; assay: Survival up to 6 days after SIRS induction secondary to sepsis (FIG. 15); type: in vivo, rat; settings: 1 mg/kg
Experimental: All rats received 50 ml/kg 0.9% normal saline iv 2 hours after SIRS induction.
Inhibition of up to 100% can be maintained for no more than 3 consecutive days, after which ADA activity should be allowed to return to at least 50% of baseline values before another dose of the inhibitor can be given. […] One-two hours after administration of a starting dose of the inhibitor, adenosine deaminase activity can be measured in various bodily fluids, tissues, dialysates, or cells by spectrophotometric methods according to the method of Vielh and Castellazzi, or other appropriate measurement that provides information regarding ADA enzyme activity. Measurement of adenosine deaminase activity can also be used to monitor the return of ADA activity after therapeutic inhibition for the treatment or prevention of SIRS.

[12] = test system: TNF-α, IL-1 beta, IL-10; assay: Cytokine concentrations after ip E coli endotoxin (LPS), pentostatin dose response (FIG. 16); type: in vivo, rat; settings: response to 2 mg/kg LPS (endotoxin), 2 hours after ip injection
Excerpt: Lower doses than this were unable to consistently suppress TNF-α and IL-1 beta with concommittant stimulation of the anti-inflammatory cytokine, IL-10.

[13] = test system: septic rats; assay: Capillary leakage: examination of peritoneal cavity and bowel of septic rats; type: in vivo, rat
[14] = test system: lipid peroxidation (TBARS); assay: Thiobarbituric acid reactive substances (TBARS) in jejunum of septic rats; settings: 24 hours, versus saline (No Rx)

## OC[C@H]1O[C@@H](n2cnc3c2N=CNC[C@@H]3O)[C@H](F)[C@@H]1O [2′-deoxy-8-epi-2′-fluorocoformycin]
[1]
  Enzyme-inhibitory activity against adenosine deaminase: high enzyme-inhibitory activities

## Cn1c(=O)c2[nH]c(-c3ccccc3)nc2n(C)c1=O [8-PTH, 8-phenyltheophylline]
[2]
  Brain (cerebral) vascular resistance: caused increases
  Skeletal muscle vascular resistance: caused increases
  Total hepato-splanchnic vascular resistance: caused increases

## OC[C@H]1O[C@@H](n2cnc3c2NC=NC[C@H]3O)C[C@@H]1O [pentostatin, (R)-3-(2-deoxy-beta-D-erythropentofuranosyl)-3,6,7,8-tetrahydro-imidazo[4,5-d]-[1,3] diazepin-8-ol]
[3]; 4 hours, versus saline-treated septic group
  Effect on serum TNF-α response to sepsis at 4 hours: attenuation of this response
[3]; 24 hours, versus saline-treated septic group
  Effect on serum TNF-α response to sepsis at 24 hours: attenuation of this response
[3]; treated at time of sepsis induction, 4 hours
  Serum TNF-α at 4 hours after sepsis induction: 592 ± 62 pg/mL
[3]; treated at time of sepsis induction, 24 hours
  Serum TNF-α at 24 hours after sepsis induction: 671 ± 175 pg/mL
[4]
  Septic rats surviving to day 3: 4 of the 5 and 4 of 5
[5]
  Blood pressures or heart rates versus saline-treated septic rats: neither the groups treated with pentostatin nor the groups treated with 8-SPT were blood pressures or heart rates significantly different
[6]
  Serum TNF-α: 20.3 ± 14.8 pg/mL
[7]
  Serum IL-6: 5525 ± 1435 pg/mL
[8]
  Circulating sTNFRI (p55): 4624 ± 404 pg/mL
[9]
  Circulating sTNFRII (p75): 16525 ± 1226 pg/mL
[10]; FIG. 14(A)
  Serum concentrations of IL-10: unaffected
[10]; FIG. 14(B) and 14(C)
  IL-10 concentrations in the liver and spleen: elevated
[11]
  Mortality in SIRS model: effective in reducing mortality
[12]
  Dose with maximal effect on modulating cytokine concentrations: 1 mg/kg
[13]
  Capillary leakage: amelioration of capillary leakage
  Small bowel hemorrhage: little to no evidence of small bowel hemorrhage
[13]; untreated 2-3 ml
  Volume of fluid in the peritoneal cavity: 0 to 1 mL
[14]
  Jejunum tissue TBARS during sepsis: diminution of tissue TBARS
